These molecules were tested against 5-HT4e receptor (Homo sapiens, UniProt Q13639) (assay: 5-HT4e receptor binding affinity assay). Conditions: binding affinity to 5-HT4e receptors.
Method: Compounds of the invention synthesized above and their binding affinity to 5-HT4e receptors was determined.

Chain of 5-HT4e receptor (Q13639 1-378 isoform Q13639-5): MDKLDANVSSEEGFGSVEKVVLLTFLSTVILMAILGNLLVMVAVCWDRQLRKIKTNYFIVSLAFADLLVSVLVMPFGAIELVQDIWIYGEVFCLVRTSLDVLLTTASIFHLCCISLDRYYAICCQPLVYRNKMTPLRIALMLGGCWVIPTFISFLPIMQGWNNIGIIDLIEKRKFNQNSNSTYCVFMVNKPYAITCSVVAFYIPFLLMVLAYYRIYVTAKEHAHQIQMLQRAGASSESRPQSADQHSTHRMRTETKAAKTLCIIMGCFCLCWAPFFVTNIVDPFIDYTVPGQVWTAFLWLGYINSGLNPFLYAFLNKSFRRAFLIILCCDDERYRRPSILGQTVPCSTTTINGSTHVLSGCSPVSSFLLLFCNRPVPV

Ki [nM]	SMILES
81	CCN1CCC(NC(=O)c2c(O)c3ccsc3n(C(C)C)c2=O)CC1 [Example 1, 6,7-Dihydro-N-(1-ethylpiperidin-4-yl)-4-hydroxy-7-isopropyl-6-oxothieno[2,3-b]pyridine-5-carboxamide]
33	CCCN1CCC(NC(=O)c2c(O)c3ccsc3n(C(C)C)c2=O)CC1 [Example 2, 6,7-Dihydro-4-hydroxy-7-isopropyl-6-oxo-N-(1-propylpiperidin-4-yl)thieno[2,3-b]pyridine-5-carboxamide]
47	CCCCN1CCC(NC(=O)c2c(O)c3ccsc3n(C(C)C)c2=O)CC1 [Example 3, N-(1-Butylpiperidin-4-yl)-6,7-dihydro-4-hydroxy-7-isopropyl-6-oxothieno[2,3-b]pyridine-5-carboxamide]
31	CC(C)n1c(=O)c(C(=O)NC2CCN(CCCO)CC2)c(O)c2ccsc21 [Example 4, 6,7-Dihydro-4-hydroxy-N-(1-(3-hydroxypropyl)piperidin-4-yl)-7-isopropyl-6-oxothieno[2,3-b]pyridine-5-carboxamide]
62	CC(C)n1c(=O)c(C(=O)NC2CCN(CC3CC3)CC2)c(O)c2ccsc21 [Example 5, N-(1-(Cyclopropylmethyl)piperidin-4-yl)-6,7-dihydro-4-hydroxy-7-isopropyl-6-oxothieno[2,3-b]pyridine-5-carboxamide]
220	CC(C)CN1CCC(NC(=O)c2c(O)c3ccsc3n(C(C)C)c2=O)CC1 [Example 6, 6,7-Dihydro-4-hydroxy-N-(1-isobutylpiperidin-4-yl)-7-isopropyl-6-oxothieno[2,3-b]pyridine-5-carboxamide]
100	CC(C)n1c(=O)c(C(=O)NC2CCN(CCc3ccccc3)CC2)c(O)c2ccsc21 [Example 7, 6,7-Dihydro-4-hydroxy-7-isopropyl-6-oxo-N-(1-phenethylpiperidin-4-yl)thieno[2,3-b]pyridine-5-carboxamide]
47	CCCCCN1CCC(NC(=O)c2c(O)c3ccsc3n(C(C)C)c2=O)CC1 [Example 8, 6,7-Dihydro-4-hydroxy-7-isopropyl-6-oxo-N-(1-pentylpiperidin-4-yl)thieno[2,3-b]pyridine-5-carboxamide]
31	CCCN1CCC(NC(=O)c2c(O)c3ccsc3n(CC)c2=O)CC1 [Example 9, 6,7-Dihydro-7-ethyl-4-hydroxy-6-oxo-N-(1-propylpiperidin-4-yl)thieno[2,3-b]pyridine-5-carboxamide]
100	CCn1c(=O)c(C(=O)NC2CCN(CCCO)CC2)c(O)c2ccsc21 [Example 10, 6,7-Dihydro-7-ethyl-4-hydroxy-N-(1-(3-hydroxypropyl)piperidin-4-yl)-6-oxothieno[2,3-b]pyridine-5-carboxamide]

— US7407966B2, “Thienopyridinone compounds and methods of treatment” (Epix Delaware, Inc., priority 2004, dated 2008)
